{
  "source": "patent US20200239957A1",
  "about": "“PREDICTION AND TREATMENT OF HEART FAILURE” (The Regents of the University of Colorado, a body corporate, priority 2013, published 2020)",
  "key": {"β-ARs": {"system": "β-ARs", "details": "heart failure patients, continuous intravenous treatment; cited from earlier work"}, "[1]": {"details": "heart failure patients, continuous intravenous treatment, cited from earlier work"}, "rtPDE3A": {"biological_target": "rtPDE3A (Homo sapiens, UniProt Q14432)", "sequence (Q14432 whole entry)": "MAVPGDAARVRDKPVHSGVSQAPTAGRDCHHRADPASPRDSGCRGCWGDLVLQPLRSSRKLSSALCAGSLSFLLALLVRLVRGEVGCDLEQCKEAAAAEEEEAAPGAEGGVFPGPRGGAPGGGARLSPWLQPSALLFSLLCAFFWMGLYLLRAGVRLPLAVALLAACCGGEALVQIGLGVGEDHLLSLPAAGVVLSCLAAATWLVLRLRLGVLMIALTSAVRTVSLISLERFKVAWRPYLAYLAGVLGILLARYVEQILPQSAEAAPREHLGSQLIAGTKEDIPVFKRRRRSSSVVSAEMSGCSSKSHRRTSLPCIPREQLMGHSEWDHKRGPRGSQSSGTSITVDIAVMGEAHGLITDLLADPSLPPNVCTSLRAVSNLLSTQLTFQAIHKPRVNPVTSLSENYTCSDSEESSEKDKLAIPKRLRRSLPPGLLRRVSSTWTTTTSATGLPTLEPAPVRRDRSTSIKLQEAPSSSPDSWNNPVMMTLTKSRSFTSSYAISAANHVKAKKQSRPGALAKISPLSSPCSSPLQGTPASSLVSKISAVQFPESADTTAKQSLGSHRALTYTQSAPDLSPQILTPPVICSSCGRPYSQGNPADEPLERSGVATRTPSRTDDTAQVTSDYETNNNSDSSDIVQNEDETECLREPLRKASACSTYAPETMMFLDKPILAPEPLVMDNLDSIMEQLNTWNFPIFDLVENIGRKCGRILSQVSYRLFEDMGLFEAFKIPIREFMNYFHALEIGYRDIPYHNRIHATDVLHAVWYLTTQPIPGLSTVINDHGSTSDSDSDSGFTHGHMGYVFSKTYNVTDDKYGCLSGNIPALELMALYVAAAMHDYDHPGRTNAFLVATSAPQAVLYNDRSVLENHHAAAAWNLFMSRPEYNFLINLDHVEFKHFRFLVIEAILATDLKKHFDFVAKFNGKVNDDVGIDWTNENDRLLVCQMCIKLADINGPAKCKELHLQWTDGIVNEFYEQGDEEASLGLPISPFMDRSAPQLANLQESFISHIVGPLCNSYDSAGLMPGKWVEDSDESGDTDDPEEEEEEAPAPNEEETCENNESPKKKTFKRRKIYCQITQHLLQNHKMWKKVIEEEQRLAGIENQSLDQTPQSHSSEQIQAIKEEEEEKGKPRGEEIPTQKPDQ", "assay": "PDE3 activity assay, cAMP hydrolysis with and without cilostazol", "type": "biochemical", "details": "0.1 μmol/L cilostazol; read-out: inhibition of rtPDE3A, submaximal (printed as IC44)", "experimental": "cAMP-hydrolytic activity was quantified according to the method of Kincaid and Manganiello (1988) as described in detail previously (Movesian et al., 1991). Briefly, microsomal fractions were added to a reaction mixture containing 0.3 mol/L NaHEPES, 0.6 mmol/L EGTA, […] MgCl2 (pH 7.5) and 0.1 μmol/L [^3H]cAMP (Perkin Elmer, Boston, Mass.). cAMP hydrolysis occurred for 10 minutes at 30° C., then the reaction was stopped by the addition of 10.1 mmol/L unlabeled cAMP and […] unlabeled 5′AMP in 0.25 mol/L HCl. The reaction mixture was neutralized with NaOH. [^3H]5′AMP was converted to [^3H]adenosine by incubation with Crotalus atrox venom (30 mg/ml) for 30 minutes at 30° C. The reaction mixture was then applied to QAE-Sephadex columns, and [^3H]adenosine was eluted with water. Cyclic AMP hydrolysis in pmol/min/mg was determined by measuring [^3H]adenosine in the eluent. PDE activity was measured in the presence and absence of 0.1 μmol/L cilostazol, a concentration that inhibits rtPDE3A submaximally (IC44); PDE3 activity was calculated by dividing the difference in activity in the presence and absence of cilostazol by the fractional inhibition of PDE3 activity at this concentration."}, "PDE3A promoter": {"system": "PDE3A promoter", "assay": "PDE3A promoter (INS/DEL) luciferase reporter in transfected NRVMs", "type": "cell-based, rat", "details": "for luciferase activity of the DEL promoter construct: DEL construct containing the CRE; for luciferase activity of the DEL promoter construct / up-regulation of PDE3A expression, INS construct (luciferase): 1 μmol/L dibutyryl cAMP or 5 μmol/L enoximone for 48 hours", "experimental": "Neonatal rat ventricular myocytes (NRVMs) were prepared from the hearts of 2-day-old rat pups by enzymatic digestion as described (Simpson et al., 1982; Waspe et al., 1990; Singh et al., 2000).\nCloning of the PDE3A promoter region was performed using PCR primers that amplified the −1434/+440 region of the human promoter that contains the INS/DEL genotype. The resulting fragment was cloned in the Promega pGL3-basic vector using MluI and BglII sites as previously described (Sucharov et al., 2003). Cloning of the construct that lacks the cAMP response element (CRE) was done by amplifying the −1066/+440 region of the PDE3A promoter downstream from the CRE site.\nFirefly luciferase plasmid DNA was transfected using the Lonza system as previously described (Sucharov et al., 2008). […] Luciferase activity was determined as previously described (Sucharov et al., 2003)."}},
  "data": [
    {"molecule": "Nc1cc(-c2ccncc2)c[nH]c1=O", "note": "[amrinone]", "values": [
      {"measurement": "β-ARs in lymphocytes of treated patients", "setting": "β-ARs", "value": "Down-regulation and desensitization"},
      {"measurement": "cardiac output at 24 hours", "setting": "[1]; 24 hours", "value": "increase"},
      {"measurement": "cardiac output by 72 hours", "setting": "[1]; 72 hours", "value": "return to baseline values"}
    ]},
    {"molecule": "O=C1CCc2cc(OCCCCc3nnnn3C3CCCCC3)ccc2N1", "note": "[cilostazol]", "values": [
      {"measurement": "inhibition at 0.1 µM", "setting": "rtPDE3A", "value": 44, "unit": "%"}
    ]},
    {"molecule": "CSc1ccc(C(=O)c2[nH]c(=O)[nH]c2C)cc1", "note": "[enoximone]", "values": [
      {"measurement": "luciferase activity of the DEL promoter construct", "setting": "PDE3A promoter", "value": "increased luciferase activity"},
      {"measurement": "up-regulation of PDE3A expression, INS construct (luciferase)", "setting": "PDE3A promoter", "value": "no evidence of up-regulation"}
    ]},
    {"molecule": "CCCC(=O)Nc1ncnc2c1ncn2[C@@H]1O[C@@H]2COP(=O)(O)O[C@H]2[C@H]1OC(=O)CCC", "note": "[dibutyryl cAMP]", "values": [
      {"measurement": "luciferase activity of the DEL promoter construct", "setting": "PDE3A promoter", "value": "increased luciferase activity"},
      {"measurement": "cAMP-induced increase in promoter activity, DEL construct with CRE sequence deleted", "setting": "PDE3A promoter; DEL construct lacking the CRE (-1066/+440), 48 hours", "value": "prevented"},
      {"measurement": "up-regulation of PDE3A expression, INS construct (luciferase)", "setting": "PDE3A promoter", "value": "no evidence of up-regulation"}
    ]}
  ]
}
